Tests used:
Format in all cases: in vivo
[1] = Sensory evaluation of sebacic acid at different amounts in sugar water
Description: Sugar water (4% sucrose in drinking water) was prepared and used as a base solution.

[2] = Descriptive sensory evaluation (taste modulation) of sebacic acid in different applications
Description: Descriptive sensory evaluations were carried out using different amounts of sebacic acid in different applications.

[3] = Sensory evaluation of sebacic acid and traumatic acid in sweetened milk; settings: for sweetness and mouthfeel of sweetened milk: 2 ppm (each) in sweetened milk; for Taste Evaluation: 2 ppm (each) in sweetened milk (2% fat milk with 2% sucrose), versus base
Description: Sweetened milk (2% fat milk with 2% sucrose) was prepared and used as a base solution (“base”).

Row | Compound | Taste Evaluation ([1]; 0.02 ppm in sugar water (4% sucrose in drinking water)) | Taste Evaluation ([1]; 1000 ppm in sugar water (4% sucrose in drinking water)) | Taste Evaluation ([2]; 7.5 ppm in 3% Sugar-Sweetened Full Fat Milk) | Taste Evaluation ([2]; 7.5 ppm in Mixed Berry Yogurt Smoothie (1% Fat, 9% Sugar, 3% Protein)) | Taste Evaluation ([2]; 15 ppm in Strawberry Flavored Yogurt (5% Sugar, 0.4% Fat, 8.7 Grams Protein)) | Taste Evaluation ([2]; 40 ppm in 3% Sugar + 0.05% Citric Acid Water Solution) | Taste Evaluation ([2]; 40 ppm in Water, compared to same application without sebacic acid) | sweetness and mouthfeel of sweetened milk [3] | Taste Evaluation [3]
1 | O=C(O)CCCCCCCCC(=O)O [Sebacic acid, sebacic acid] | Slight sweet and mouthfeel | Strong sweet and mouthfeel | Increases fatty perception | Cuts sour end, increased | Sweet up front, more | Fatty and oily | Fatty and oily | increased sweetness and mouthfeel | Sweeter and more mouthfeel
2 | O=C(O)/C=C/CCCCCCCCC(=O)O [Traumatic Acid, traumatic acid] |  |  |  |  |  |  |  | increased sweetness and mouthfeel | Sweeter and more mouthfeel

— patent US20220022513A1 (INTERNATIONAL FLAVORS & FRAGRANCES INC., priority 2018, published 2022)
